Experimental data reported in patent US12365946B2, “Compositions and methods for the diagnosis and treatment of lymphatic system disorders” (THE CHILDREN'S HOSPITAL OF PHILADELPHIA, priority 2018, dated 2025).

What was measured:
mTOR = mTOR (Homo sapiens, UniProt P42345); details: cell-free assays; cited from earlier work
[1] = tested on: zebrafish larvae overexpressing KRAS-G12D mutant in lymphatics; test: Zebrafish model overexpressing KRAS-G12D in lymphatics; assay type: in vivo; details: FIG. 19
[2] = tested on: ERK activation/phosphorylation in cells expressing WT and mutant BRAF or PTPN11; test: pERK levels in Ea.hy926 cells expressing WT and mutant BRAF or PTPN11, MEK inhibitor titration; assay type: cell-based, human; details: cells expressing WT and mutant BRAF or PTPN11, FIGS. 4 and 5
Excerpt: A cellular model for studying the effects of potential ERK-activating mutations was developed. We have retrovirally expressed wild-type and mutant versions of proteins in the cell line Ea.hy926. The Ea.hy926 cell line is a fusion of human umbilical vein endothelial cells with a […] cell line. It is immortalized and retains some characteristics of endothelial cells.
In an effort to identify inhibitors with greater therapeutic efficacy, we have treated cells expressing WT and mutant BRAF or PTPN11 with various MEK inhibitors. […] BRAF F486S consistently induces ERK activation over WT levels, although the specific fold increase varies from gel to gel.

MM cell lines = details: units printed inside the range; cited from earlier work
[3] = tested on: HDLECs expressing ARAF mutation S214P; test: Immunofluorescence staining and western blotting of HDLECs expressing ARAF-S214P; assay type: cell-based, human; details: for biochemical and morphological reversal of the effects induced by the ARAF mutation / cell morphological differences induced by ARAF-S214P: HDLECs; for VE-cadherin accumulation at the cell membrane / levels of pERK: HDLECs expressing ARAF-S214P
Excerpt: We developed a cellular model to better understand and study the effects of potential ERK-activating mutations was developed by using primary lymphatic endothelial cells instead of established cell lines to capture the characteristics of mutations in the disease relevant cell type. We have retrovirally expressed wild-type and mutant versions of proteins in the human dermal lymphatic endothelial cells (HDLECs).
The ARAF sequence, from pCDNA3.1-F2S2-ARAF-WT or -S214P constructs as previously indicated, was cut with BamHI/XhoI and introduced into the BglII/XhoI sites of a modified version of the pMSCV plasmid that contains aminoterminal FLAG and HA tags. Viral production was performed using Fugene, with 8 μg of total DNA (pMSCV-ARAF-WT or -S214P together with envelope and packaging plasmids) and 18 μl of the transfection reagent in HEK293T. After 72 h, viral supernatant was collected and filtered. HDLECs were infected by replacing the cell culture medium with the viral supernatant, supplemented with 8 μg ml^−1 Polybrene and filtered through a 0.45 μm filter. Cells were spinfected at 650 g for 90 min, and subsequently cultured for 6 h at which point the viral supernatant was replaced by standard culture medium. Transduced HDLECs were cultured for 48 h before use in experiments. Transduction efficiencies observed by HA staining were between 40% and 60%.
Round (12 mm) coverslips (VWR) were coated with 0.1% gelatin in water for 10 min in 24-well plates (Corning), and then air-dried for 15 min. […] Cells were washed in warm serum-free Dulbecco's modified Eagle's medium and fixed in 4% paraformaldehyde. Fixed cells were washed twice with PBS and twice with 0.1% BSA in PBS. Cells were permeablized and blocked by incubation with 10% normal donkey serum (Jackson Immunoresearch) and 0.3% Triton X-100 (Sigma Aldrich) in PBS. VE-cadherin antibody (Thermo Fisher Scientific) was diluted (final concentration: 2 μg ml^−1) in 0.01% normal donkey serum, 0.1% BSA and 0.3% Triton X-100 in PBS, and staining was performed for 1 h. Coverslips were washed twice with 0.1% BSA in PBS. Goat-anti-rabbit Alexa546 (Thermo Fisher Scientific; final concentration: 8 μg ml-1) and phalloidin Alexa350 (Thermo Fisher Scientific; final concentration: 5 units ml-1) were diluted in 0.01% normal donkey serum, 0.1% BSA and 0.3% Triton X-100 in PBS, and staining was performed for 1 h. When used, HA-Tag (6E2) mouse antibody (cat. no. 2367, Cell Signaling Technology) was diluted 1:100 in 0.1% BSA and 0.3% Triton X-100 in PBS, and staining was performed for 1 h. Coverslips were washed twice with 0.1% BSA in PBS and twice with PBS. Coverslips were dipped in water to remove residual salts, and mounted to slides using Prolong Gold antifade reagent (Thermo Fisher Scientific). Image acquisition was performed on a Leica DM6000 motorized upright microscope with a Photometrics HQ2 high-resolution monochrome CCD (charge-coupled device) camera using LAS AF software (Leica Microsystems). Z-stacks were acquired at ×10 magnification. Images were further processed in the Fiji software package42. Brightness and contrast adjustments were made. Identical brightness and contrast settings were applied to all images. Fluorescence values were measured in regions of interest (ROIs) drawn to contain entire individual cells, or in ROIs drawn to contain the entire cell body but exclude the cell-cell junction. From those measured values, a value for the plasma membrane was derived (total cell-intracellular), and the ratio of plasma membrane to intracellular values was derived and plotted. Additionally, the length and width of cells were measured with the line tool and ROI manager. For both analyses, five clearly ARAF-expressing cells, as determined by HA staining, were analyzed per ×10 field. Five ×10 fields were acquired per condition per experiment. Experiments were conducted with cells from 3 independent thaws and transductions of HDLECs, for a total of 75 cells per condition. […]

[4] = tested on: Abl1, AKT3, c-RAF, CamK1, CDK2, c-Met; details: cited from earlier work

| Structure (SMILES) | IC50 (mTOR) | disorganized lymphatic branching [1] | edema [1] | pERK levels, titration curves [2] | IC50 (MM cell lines) | biochemical and morphological reversal of the effects induced by the ARAF mutation [3] | cell morphological differences induced by ARAF-S214P [3] | VE-cadherin accumulation at the cell membrane [3] | levels of pERK [3] | activity to Abl1, AKT3, c-RAF, CamK1, CDK2, c-Met, etc. [4] |
| --- | --- | --- | --- | --- | --- | --- | --- | --- | --- | --- |
| CO[C@H]1C[C@@H]2CC[C@@H](C)[C@@](O)(O2)C(=O)C(=O)N2CCCC[C@H]2C(=O)O[C@H]([C@H](C)C[C@@H]2CC[C@@H](OCCO)[C@H](OC)C2)CC(=O)[C@H](C)/C=C(\C)[C@@H](O)[C@@H](OC)C(=O)[C@H](C)C[C@H](C)/C=C/C=C/C=C/1C [Everolimus (RAD001), Everolimus] | 1.6 to 2.4 nM | – | – | – | – | – | – | – | – | – |
| O=C(NC[C@H](O)CO)c1ccncc1Nc1ccc(I)cc1F [Pimasertib (AS-703026), Pimasertib] | – | improvement | decrease | reducing pERK levels in cells in a dose dependent manner | 5 to 2000 nM | reversal | rescued | increased | reduced | – |
| Cn1c(=O)c(F)c(Nc2ccc(I)cc2F)c2c(=O)n(C[C@@H](O)CO)cnc21 [TAK-733] | – | improvement | decrease | – | – | reversal | rescued | increased | reduced | inactive to Abl1, AKT3, c-RAF, |
